Target: Neurotensin receptor (Homo sapiens, UniProt O95665+P30989)
Assay: Binding ability to compete with [125I]Tyr3-NT (0.15 nM) for human NT receptors cloned in CHO cells.
Format: cell-based

Row | Structure (SMILES) | Ki [nM]
1 | CC[C@@H](C)[C@@H](NC(=O)[C@@H]1Cc2ccc(cc2)OCCCCCC(=O)N2CCC[C@H]2C(=O)N1)C(=O)N[C@@H](CC(C)C)C(=O)O | > 2000
2 | CC[C@@H](C)[C@@H](NC(=O)[C@@H]1Cc2ccc(cc2)OCCCCCC(=O)N[C@H](CCCN=C(N)N)C(=O)N2CCC[C@H]2C(=O)N1)C(=O)N[C@@H](CC(C)C)C(=O)O | 450
3 | CC[C@H](C)[C@H](NC(=O)[C@H](Cc1ccc(O)cc1)NC(=O)[C@@H]1CCCN1C(=O)[C@@H](N)CCCN=C(N)N)C(=O)N[C@@H](CC(C)C)C(=O)O | 28
